± gives the expanded uncertainty stated by the source.
Conditions: Liquid; flow method with low residence time

Structure (SMILES)	Critical pressure [kPa]	Critical temperature [K]
CCO [ethanol]	6141 ± 51	514 ± 0.4
CCOC(=O)OCC [diethyl carbonate]	3346 ± 30	578.1 ± 0.4
C1CCCCC1 [cyclohexane]	4074 ± 36	553.6 ± 0.4
CCCCCCC [heptane]	2736 ± 25	540.1 ± 0.4

Now from value to compound:

Critical pressure [kPa]	Critical temperature [K]	Structure (SMILES)
3033 ± 27	507.8 ± 0.4	CCCCCC [hexane]
2496 ± 24	568.9 ± 0.4	CCCCCCCC [octane]
